PMC10526857, “In Vitro Enzymatic Studies Reveal pH and Temperature Sensitive Properties of the CLIC Proteins” (Biomolecules, 2023)

What was measured:
CLIC4 [1] = biological target: T1, CLIC4 (Homo sapiens, UniProt Q9Y696); experiment: inhibition of HEDS reductase activity, GR-coupled NADPH consumption at […] nm; format: biochemical; details: 10 µM inhibitor, 10 µM CLIC, 1 h preincubation at 4 °C; 1 mM HEDS, 1 mM GSH, 250 µM NADPH, 0.5 µg/mL GR, pH 7, 37 °C
T1 construct: recombinant, E. coli, pGEX-4T-1 N-terminal GST tag cut off with thrombin, SEC purified
T1 sequence (Q9Y696 whole entry): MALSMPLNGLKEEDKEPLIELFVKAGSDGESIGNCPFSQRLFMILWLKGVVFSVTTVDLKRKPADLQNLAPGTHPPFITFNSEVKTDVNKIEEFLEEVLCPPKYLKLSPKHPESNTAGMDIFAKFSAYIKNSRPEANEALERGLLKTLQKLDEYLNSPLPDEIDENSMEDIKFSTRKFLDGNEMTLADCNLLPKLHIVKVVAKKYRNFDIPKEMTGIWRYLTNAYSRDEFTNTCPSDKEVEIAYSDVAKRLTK

CLIC3 [2] = biological target: T2, CLIC3 (Homo sapiens, UniProt O95833); experiment: as above; format: biochemical; details: 10 µM inhibitor, 10 µM CLIC, 1 h preincubation at 4 °C; 1 mM HEDS, 1 mM GSH, 250 µM NADPH, 0.5 µg/mL GR, pH 7, 37 °C
T2 construct: recombinant, E. coli BL21(DE3), pET-28a His-tag cut off with thrombin, Ni-NTA and SEC purified
T2 sequence (O95833 whole entry): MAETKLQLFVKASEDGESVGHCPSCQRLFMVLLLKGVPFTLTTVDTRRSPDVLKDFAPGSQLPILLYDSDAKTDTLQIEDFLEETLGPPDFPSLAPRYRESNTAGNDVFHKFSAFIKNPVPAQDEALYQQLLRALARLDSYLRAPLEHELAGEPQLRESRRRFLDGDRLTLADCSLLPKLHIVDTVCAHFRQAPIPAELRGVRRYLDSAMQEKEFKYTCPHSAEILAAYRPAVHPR

CLIC1 [3] = biological target: T3, CLIC1 (Homo sapiens, UniProt O00299); experiment: as above; format: biochemical; design: recombinant, E. coli BL21(DE3), pET-28a His-tag cut off with thrombin, Ni-NTA and SEC purified; details: 10 µM inhibitor, 10 µM CLIC, 1 h preincubation at 4 °C; 1 mM HEDS, 1 mM GSH, 250 µM NADPH, 0.5 µg/mL GR, pH 7, 37 °C
CLIC1 [4] = biological target: T3, CLIC1; details: 1 mM GSH, 250 µM NADPH, 0.5 µg/mL yeast GR, 10 µM CLIC, 5 mM potassium phosphate pH 7, 1 mM EDTA, 37 °C
CLIC4 [5] = biological target: T1, CLIC4; experiment: HEDS assay coupled to glutathione reductase, NADPH consumption at […] nm, Lineweaver-Burk; format: biochemical; details: 1 mM GSH, 250 µM NADPH, 0.5 µg/mL yeast GR, 10 µM CLIC, 5 mM potassium phosphate pH 7, 1 mM EDTA, 37 °C
CLIC3 [6] = biological target: T2, CLIC3; experiment: as above; format: biochemical; details: 1 mM GSH, 250 µM NADPH, 0.5 µg/mL yeast GR, 10 µM CLIC, 5 mM potassium phosphate pH 7, 1 mM EDTA, 37 °C

| SMILES | residual activity (%) at 10 μM (CLIC4 [1]) | residual activity (%) at 10 μM (CLIC3 [2]) | residual activity (%) at 10 μM (CLIC1 [3]) | Km (CLIC1 [4]) [µM] | Km (CLIC4 [5]) [µM] | Km (CLIC3 [6]) [µM] |
| --- | --- | --- | --- | --- | --- | --- |
| C[C@@H]1[C@H](O)[C@@H](C)/C=C/C=C/C=C/C=C/C=C/C=C/C=C/[C@H](O[C@@H]2O[C@H](C)[C@@H](O)[C@H](N)[C@@H]2O)C[C@@H]2O[C@](O)(C[C@@H](O)C[C@@H](O)[C@H](O)CC[C@@H](O)C[C@@H](O)CC(=O)O[C@H]1C)C[C@H](O)[C@H]2C(=O)O [amphotericin B] | Both rapamycin and amphotericin B caused inhibition of the enzymatic activity of all three proteins | Both rapamycin and amphotericin B caused inhibition of the enzymatic activity of all three proteins | with CLIC1′s activity virtually abolished by all three drugs | – | – | – |
| OCCSSCCO [HEDS] | – | – | – | 274 | 345 | 266 |
| CO[C@H]1C[C@@H]2CC[C@@H](C)[C@@](O)(O2)C(=O)C(=O)N2CCCC[C@H]2C(=O)O[C@H]([C@H](C)C[C@@H]2CC[C@@H](O)[C@H](OC)C2)CC(=O)[C@H](C)/C=C(\C)[C@@H](O)[C@@H](OC)C(=O)[C@H](C)C[C@H](C)/C=C/C=C/C=C/1C [rapamycin] | Both rapamycin and amphotericin B caused inhibition of the enzymatic activity of all three proteins | Both rapamycin and amphotericin B caused inhibition of the enzymatic activity of all three proteins | with CLIC1′s activity virtually abolished by all three drugs | – | – | – |
